Counter-ions that a name gives are not always drawn.
Legend:
[1] = tested on: Hex and Islet-1 (Isl1) gene expression; experiment: In situ hybridization of Hex and Isl1 in avian heart fields after Li, HCy or Wnt3A with or without FA; assay type: in vivo, chick
Method: In situ hybridizations on control and experimentally manipulated chick embryos were carried out using digoxigenin-labeled riboprobes with alkaline phosphatase detection (Linask et al., 2001). Images of whole-mounted chick embryos were taken with a Nikon DS-L2 camera unit. Probes for chick Hex were provided by Parker Antin, University of Arizona and probes for chick Islet-1 (Isl1) were provided by Thomas Jessell, Columbia University, NY.
Chick embryos (HH stages 3+/4) were incubated on agarose albumin supplemented with HCy (50 μM). Instead of giving a single injection in ovo, embryos were exposed to HCy for 8 hours in order to define the effect on early cardiac gene expression. Another group of embryos were exposed to HCy for 24 hours at which time the effects on gene expression were determined. To analyze the effects during the looping stages, incubation was stopped after between 22 and 24 hours. After the 8-hour incubation, Li and HCy suppressed Hex and Isl1 expression in the cardiogenic crescent (FIG. 5).
The inventors next analyzed whether FA rescues the downregulation of Hex and Isl1. Chick embryos were exposed to Li, HCy or Wnt3A, as above, with and without 10 μg/ml of FA; the experiments were terminated after either an 8-hour or 24-hour exposure period, at which time in situ hybridizations for gene expression were performed. After 8 hours of exposure, Li, HCy and Wnt3A all suppressed Hex (FIGS. 9D, G, J) and Isl1 (FIGS. 10D, G, J) compared with the control embryonic expression patterns (FIG. 9A; FIG. 10A). […] Thus, FA supplementation suppressed the potentiation of the inhibitory Wnt signaling, allowing for normal induction of Hex and Isl1 gene expression.

chick embryos = experiment: Early embryonic chick culture: heart development (MF20) after HCy, Li or Wnt3A exposure, FA/inositol rescue; assay type: in vivo, chick (Gallus gallus); settings: for Abnormal (number of embryos) / Normal (number of embryos) / % Normal Hearts: HCy 50 μM, FA 10 μM
Method: Pathogen-free White Leghorn chick (Gallus gallus; Charles River, Mass.) and quail (Coturnix coturnix japonica; Strickland Farms, Ga.) embryos were used to analyze the effects of HCy on early embryogenesis. The early processes of heart development are well conserved among vertebrates and the avian model allows for more precise timing of exposure in early embryos. The incubation methodology using agarose-albumin has been described previously (Darnell and Schoenwolf, 2000). Briefly, the experimental paradigm involved exposing specific early stages of chick embryos, at HH stages 4 to 7 (Hamburger and Hamilton, 1951), to different concentrations of HCy (L-homocysteine thiolactone hydrochloride, Sigma) made up in physiological saline. Final concentrations of HCy included 30 μM, 50 μM, 75 μM and 100 μM. The minimal teratogenic dose was determined empirically to be 50 μM. This fit within the concentration range of 30 μM to 300 μM used by others that induced heart defects at later stages of development (Boot et al., 2004). Control embryos were incubated using the vehicle, physiological saline, in the agarose-albumin medium. Control and experimental cultures were incubated on the agarose-albumin plates for either 8 or 24 hours.
Carrier-free, recombinant mouse Wnt3A was purchased from R&D Systems (Minneapolis, Minn.). Wnt3A concentrations were empirically tested to find those that would induce cardiac defects but maintain embryonic viability. Wnt3A was tested at concentrations of 2 ng, 10 ng, 20 ng, 50 ng and 100 ng per ml. Concentrations of 2 ng/ml and 10 ng/ml were both effective in inducing cardiac defects. Both Wnt3A concentrations were used in the FA rescue experiments, as described. For the FA rescue experiments, folate (folic acid, Sigma-Aldrich) was added at a concentration of 2 μg, 5 μg or 10 μg per ml. […] For the experiments using inositol (myo-inositol, Sigma) supplementation, a concentration of 50 mg/ml was used.
The main embryonic defects related to the timing of embryonic exposure; the regions that were primarily affected related to an anterior-to posterior (AP) wave of development along this embryonic axis. The exposure effects ranged from early effects (e.g. no cardiac tissue, heart development occurring anterior to neural tissue, cardiabifida) to later effects, such as wide hearts and left looping (Table 1). The cardiac phenotypes observed with early HCy exposure were similar, although not identical, to those obtained from previous studies of Li exposure on avian heart development (Manisastry et al., 2006). The Wnt/β-catenin modulated genes Hex and Isl1 in the chick embryo also were similarly repressed with HCy, as with Li in the chick cardiogenic region. […] Investigation of regulatory gene activity in chick embryos indicates Li, HCy and Wnt3A suppress Wnt-modulated genes Hex and Islet-1 in the heart fields.
To define the effective dose of Wnt3A needed to induce cardiac dysmorphogenesis, Wnt3A was tested at concentrations of 2 ng, 10 ng, 20 ng, 50 ng, and 100 ng per ml. The minimal effective doses of Wnt3A that induced cardiac and neural anomalies were 2 ng/ml and 10 ng/ml, respectively. Using these concentrations, the inventors analyzed whether FA supplementation of media at 10^3-fold higher concentrations, that is 2 μg/ml or 10 μg/ml, would provide protection against the augmentation of canonical Wnt3A signaling.

[2] = tested on: Acadm and Acadl gene expression; experiment: RT-PCR of Acadm and Acadl in E7.5 embryos and E15.5 hearts; assay type: in vivo, mouse; settings: for Acadm expression: E15.5 hearts, versus control hearts
Description: The gene expression data were validated by RT-PCR in mouse embryos at both E 7.5 (a half day after exposure) and at E15.5 and by in situ hybridization for tissue localization analyses. The inventors chose E 7.5 to determine early gestational changes in gene expression and to define whether these expression changes were maintained during pregnancy to E 15.5. Digoxigenin labeled probes and alkaline phosphatase secondary antibody detection for in situ hybridization were used (Roche, Inc., Indianapolis, Ind.).

[3] = 50 μM HCy, early embryonic chick model
[4] = HH stage 3 +/4, Li 50 μM, inositol 280 mM
[5] = White Leghorn, chick, in vivo, 50 μM

## N[C@H]1CCSC1=O [HCy, L-homocysteine thiolactone hydrochloride]
[1]; 8 hours of exposure, HH stages 3+/4
  Hex and Isl1 expression in the cardiogenic crescent: suppressed
[1]; by 24 hours of Li or HCy exposure
  Isl1 gene expression: recovered
Chick embryos; [3]
  Dead, Frequency: 6
  Dead, Percent: 5.6%
Chick embryos; [4]
  Abnormal (number of embryos): 100
  Normal (number of embryos): 28
Chick embryos; HH stage 3 +/4, Li 50 μM, inositol 280 mM, hydrochloride
  % Normal Hearts: 22%
Chick embryos; HH stage 5
  Abnormal (number of embryos): 50
  Normal (number of embryos): 24
Chick embryos; HH stage 5, hydrochloride
  % Normal Hearts: 32%
Chick embryos; White Leghorn, chick, in vivo
  minimal teratogenic dose: 50 µM
Chick embryos; [5]
  Cardiabificla, Frequency: 11
  Cardiabificla, Percent: 10.2%
  Delayed development, Frequency: 2
  Delayed development, Percent: 1.9%
  Heart above head, Frequency: 18
  Heart above head, Percent: 16.7%
  Heart close midline, Frequency: 15
  Heart close midline, Percent: 13.9%
  Left looping, Frequency: 11
  Left looping, Percent: 10.2%
  Tubular heart, Frequency: 3
  Tubular heart, Percent: 2.8%
  Very abnormal (or no hearts), Frequency: 18
  Very abnormal (or no hearts), Percent: 16.7%
  Wide heart, Frequency: 24
  Wide heart, Percent: 22.2%
Chick embryos; in vivo
  development after exposure at HH stages 6 and 7: normal development
[2]; E7.5, versus control embryos, FA from morning after conception
  Acadm/Acadl gene expression: slightly down-regulated
[2]
  Acadm expression: upregulation

## Nc1nc2ncc(CNc3ccc(C(=O)N[C@@H](CCC(=O)O)C(=O)O)cc3)nc2c(=O)[nH]1 [FA, folic acid]
[1]; embryos exposed to Li, HCy or Wnt3A, FA 10 μg/ml, 8 hours
  Hex and Isl1 gene expression with FA supplementation: normalized gene expression patterns
[1]; embryos exposed to Li, HCy or Wnt3A, FA 10 μg/ml, 24 hours
  heart formation and Hex/Isl1 expression with FA supplementation: normal beating hearts had formed
Chick embryos; [4]
  % Normal Hearts: 55%
  Abnormal (number of embryos): 5
  Normal (number of embryos): 6
Chick embryos; HH stage 3 +/4, Li 50 μM, inositol 280 mM, listed as FA only
  % Normal Hearts: 55%
Chick embryos; in vivo
  heart development (MF20): normal heart development
[2]
  Acadm expression: returned the expression close to control levels
